Measured values published in article PMC9811213, “Glutamine deamidation does not increase the immunogenicity of C-peptide in people with type 1 diabetes” (Journal of Translational Autoimmunity, 2022).

Columns and labels:
[1] = system: Jurkat line (ACD4_38) expressing a C-peptide specific TCR; test: IL-2 secretion (ELISA) by TCR-transduced Jurkat line, peptide titration; format: cell-based, human; conditions: clone ACD4_38, two independent experiments
Procedure: (§1) TCR-transduced T cells were cultured, in triplicate, in cRPMI/5% FBS at 2 × 10^4/well with an equal number of EBV-transformed B cells (see Supplementary Table 3) and different peptides (Purar Chemicals). See Supplementary Table 6 for a full list of peptides used in this study. The positive control was PMA (10 ng/mL) and ionomycin (500 ng/mL) in culture media. Negative controls had all cells, but no peptide. After overnight culture supernatant was collected for IL-2 ELISA.
ELISAs were performed using the ELISA MAX™ Deluxe set Human IL-2 (BioLegend) as per the manufacturer's instructions. Briefly, 96-well ELISA plates (Greiner Bio-One) were coated with 100μL/well of purified anti-human IL-2 antibody diluted 1:200. […] The reaction was stopped by the addition of 2 M H2SO4 solution (BioLegend) and optical density (OD) measured using a FLUOstar Omega microplate reader (BMG LabTech). The amount of IL-2 secreted was determined using a linear regression of all OD values (minus the background) of the standard curve. […]
To determine if C-peptide specific TCRs were more sensitive to Q to E variants of C-peptide we tested graded concentrations of wild type C-peptide and five deamidated variants. […] To compare the relative potency of the Q to E substituted peptides the responses were calculated as fold change relative to full-length, WT C-peptide (Fig. 2D). […]

[2] = system: 18 Jurkat T-cell lines expressing C-peptide specific TCRs; test: IL-2 secretion (ELISA) by panel of 18 TCR-transduced Jurkat lines, peptide titration; format: cell-based, human; conditions: Mann-Whitney test, Fig. 2H
Procedure: as §1
ELISAs were performed using the ELISA MAX™ Deluxe set Human IL-2 (BioLegend) as per the manufacturer's instructions. […] The reaction was stopped by the addition of 2 M H2SO4 solution (BioLegend) and optical density (OD) measured using a FLUOstar Omega microplate reader (BMG LabTech). The amount of IL-2 secreted was determined using a linear regression of all OD values (minus the background) of the standard curve. […]
Fig. 2 C-peptide specific TCR responses to deamidated C-peptide variants (A) Each peptide is referred to by the position, within C-peptide of the glutamine (Q), in bold, to glutamic acid (E), in red text, substitutions. […] (C) The EC50 for each peptide was calculated the and the EC50 from two independent experiments are shown. […] Statistical significance was determined using the Mann-Whitney test (ns, not significant, […], p < 0.05, **p < 0.01, ***p < 0.001). […]

## EAEDLEVGEVELGGGPGAGSLEPLALEGSLE [QallE, C-peptide with all four glutamines substituted for glutamic acid]
[1]
  Stimulation compared with WT C-peptide and the other single substituted peptides (EC50, IL-2): dramatically less stimulatory

## EAEDLQVGEVELGGGPGAGSLQPLALEGSLQ [Q9E, C-peptide variant with glutamine 9 substituted for glutamic acid]
[1]
  Stimulation compared with WT C-peptide and the other single substituted peptides (EC50, IL-2): dramatically less stimulatory

## EAEDLQVGQVELGGGPGAGSLQPLALEGSLE [Q31E, C-peptide variant with glutamine 31 substituted for glutamic acid]
[2]
  Difference in fold change in EC50 (relative to full-length C-peptide) between clones with overlapping and non-overlapping epitopes: no difference
